Common to all, as to assay type: in vivo
For one series, the system named is Amaranthus retroflexus. Nature of the series: Test Example 4: herbicidal effect by soil treatment (symbol N). As to conditions: for N: Amaranthus retroflexus, herbicidal effect grade: 320 g/ha. Put shortly: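 Seeds were sown in sterilized diluvial soil, covered with about 1.5 cm of soil, and the soil surface was sprayed with a water-diluted emulsion of the compound at a predetermined rate. Plants grew in a greenhouse at 25° C. to 30° C.; effects were scored visually 3 weeks after application.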

The next series has as its system rice plant. Nature of the series: Test Example 5: effect on crop by foliage application, plastic box (symbol b). The settings on record: 320 g/ha, 3 weeks after application. Put shortly: (§1)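 In a plastic box 7 cm deep filled with sterilized diluvial soil, seeds of crops and weeds such as Digitaria ciliaris, Avena fatua and Amaranthus retroflexus are sown in spots and covered with about 1.5 cm of soil before greenhouse growth at 25–30° C.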

A further series concerns Monochoria vaginalis. Nature of the series: Test Example 2: herbicidal activity, application during weed generation in submerged conditions (symbol C). As to conditions: Table 23; application herbicide amount 320 g/ha; grade 0-5 by criteria of Test Example 1. The method in brief:
(§2)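 Submerged alluvial soil (4 cm) sown with mixed seed; greenhouse 25–30° C. 1–2 leaf: diluted emulsion onto water surface, preset dose. Visual score, 3 wk.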

The subject of series [1] is soybean. Nature of the series: Test Example 5: effect on crop by foliage application, plastic box (symbol d). As to conditions: 320 g/ha, 3 weeks after application. Put shortly: as §1
A further series has as its system wheat. As to the kind of experiment: Test Example 5: effect on crop by foliage application, plastic box (symbol e). The settings on record: 320 g/ha, 3 weeks after application. The method in brief: as §1
The next series deals with Avena fatua. Nature of the series: Test Example 5: herbicidal effect by foliage application, plastic box (symbol I). The settings on record: 320 g/ha, 3 weeks after application. The method in brief: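 Post-emergence spray; diluvial soil (sterilized), ~1.5 cm seed cover; greenhouse 25–30° C; 14-day-old plants; water-diluted emulsion at predetermined dose; visual score at 3 wk post-treatment.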

Series [2] has as its system Echinochloa oryzacola Vasing. Nature of the series: Test Example 1: herbicidal activity, application before weed generation in submerged conditions (symbol A). As to conditions: application herbicide amount 320 g/ha. The method in brief: (§3)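 Pre-emergence, paddy conditions: emulsifiable formulation diluted in water, dosed onto floodwater (4 cm depth) on sowing day. Alluvial soil; weeds sown mixed; rice transplanted at 2.5-leaf stage. Greenhouse 25–30 °C, 3 wk. Score 0–5 (5 = ≥90% kill, 0 = ≤5%).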

In series [3] the test system is Echinochloa crus-galli var. crus-galli. Nature of the series: Test Example 3: herbicidal effect by foliage application, Wagner pot (symbol H). As to conditions: application herbicide amount 320 g/ha. Put shortly:
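Steps: fill pot with alluvial soil; add water to 0.1–0.5 cm depth; sow weed and rice seed; grow 14 days at 25–30 °C; spray diluted emulsion over the leaves; rate effect after 3 weeks.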

For series [4], the system named is Scirpus juncoides. Nature of the series: Test Example 2: herbicidal activity, application during weed generation in submerged conditions (symbol B). The settings on record: Table 23; application herbicide amount 320 g/ha; grade 0-5 by criteria of Test Example 1. The method in brief: as §2
Series [5] relates to soybean. Nature of the series: Test Example 4: effect on crop by soil treatment (symbol d). The settings on record: for d: soybean, effect grade on crop: 320 g/ha. Put shortly: (§4)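 Diluvial soil (sterilized) in boxes; seeds placed spot-wise alongside weed species; ~1.5 cm covering soil. Greenhouse, 25–30° C.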
Series [6] deals with Scirpus juncoides. Nature of the series: Test Example 1: herbicidal activity, application before weed generation in submerged conditions (symbol B). The settings on record: application herbicide amount 320 g/ha. The method in brief:
as §3

Another series concerns rapeseed. Nature of the series: Test Example 4: effect on crop by soil treatment (symbol g). As to conditions: for g: rapeseed, effect grade on crop: 320 g/ha. Put shortly:
as §4

[7] abbreviates: application herbicide amount 320 g/ha.

In the case of `CON=C(C)CC1CC(OC(=O)COc2ccc(Br)cc2)=C(c2c(C)cc(C)cc2C)C1=O` (stereo not drawn) [1-081], the “N: Amaranthus retroflexus, herbicidal effect grade” value in the series with Amaranthus retroflexus was 4 (Herbicidal ratio of 70% or higher and lower than 90%). The “b: directly sowed rice plant, effect on crop (criteria 0-5)” value with rice plant was 5 (Herbicidal ratio of 90% or more (almost completely withered)). Further, in the series on Monochoria vaginalis, the “Herbicidal effect grade, C: Monochoria vaginalis” value (“Herbicidal effect grade, C” for short) is 3 (Herbicidal ratio of 40% or higher and lower than 70%). Further, in the series on soybean [1], the “d: soybean, effect on crop (criteria 0-5)” value is given as 5 (Herbicidal ratio of 90% or more (almost completely withered)). In addition, in the series on wheat, the “e: wheat, effect on crop (criteria 0-5)” value is 4 (Herbicidal ratio of 70% or higher and lower than 90%). Further, the “I: Avena fatua, herbicidal effect (criteria 0-5)” value in the series with Avena fatua is reported as 5 (Herbicidal ratio of 90% or more (almost completely withered)). The “Herbicidal effect grade, A: Echinochloa oryzacola Vasing.” value in series [2] is on record as 5 (Herbicidal ratio of 90% or more (almost completely withered)). For the same compound, in series [3], the “herbicidal effect on H (Echinochloa crus-galli var. crus-galli), grade 0-5” value (from here on “herbicidal effect on H”) is reported as 5 (Herbicidal ratio of 90% or more (almost completely withered)). Besides, the “Herbicidal effect grade, B: Scirpus juncoides” value (“Herbicidal effect grade, B” for short) was 4 (Herbicidal ratio of 70% or higher and lower than 90%) in the series with Scirpus juncoides [4]; 5 (Herbicidal ratio of 90% or more (almost completely withered)) in the series with Scirpus juncoides [6]. For the same compound, the “d: soybean, effect grade on crop” value in the series with soybean [5] was 1 (Herbicidal ratio of 5% or higher and lower than 20%). For the same compound, the “g: rapeseed, effect grade on crop” value in the series with rapeseed is 4 (Herbicidal ratio of 70% or higher and lower than 90%).

As for `CCCCCCCON=C(C)CC1CC(O)=C(c2c(C)cc(C)cc2C)C1=O` (stereo not drawn) [1-054], the “N (Amaranthus retroflexus) herbicidal effect grade” value in the series on Amaranthus retroflexus (setting [7]) is listed as 0 (Herbicidal ratio of 5% or lower (almost no effect)). Also, the “b: directly sowed rice plant, effect on crop grade” value in the series on rice plant was 4 (Herbicidal ratio of 70% or higher and lower than 90%). For the same compound, the “Herbicidal effect grade, C” value in the series with Monochoria vaginalis is recorded as 0 (Herbicidal ratio of 5% or lower (almost no effect)). Further, the “d: soybean, effect on crop grade” value in the series with soybean [1] is listed as 0 (Herbicidal ratio of 5% or lower (almost no effect)). Also, in the series with wheat, the “e: wheat, effect on crop grade” value is 0 (Herbicidal ratio of 5% or lower (almost no effect)). In the series with Avena fatua, the “I: Avena fatua, herbicidal effect grade” value was 3 (Herbicidal ratio of 40% or higher and lower than 70%). Besides, in series [2], the “Herbicidal effect grade, A: Echinochloa oryzacola Vasing.” value was 5 (Herbicidal ratio of 90% or more (almost completely withered)). In addition, the “herbicidal effect on H” value in series [3] is recorded as 5 (Herbicidal ratio of 90% or more (almost completely withered)). Further, the “Herbicidal effect grade, B” value in the series with Scirpus juncoides [4] and with Scirpus juncoides [6] was 0 (Herbicidal ratio of 5% or lower (almost no effect)) throughout. Also, in the series on soybean [5] (setting [7]), the “d (soybean) effect on crop grade” value is listed as 0 (Herbicidal ratio of 5% or lower (almost no effect)). For the same compound, the “g (rapeseed) effect on crop grade” value with rapeseed (setting [7]) was 1 (Herbicidal ratio of 5% or higher and lower than 20%).

Consider `CON=C(C)CC1CC(OC(=O)COc2ccc(C=O)cc2)=C(c2c(C)cc(C)cc2C)C1=O` (stereo not drawn) [1-079], for which the “N: Amaranthus retroflexus, herbicidal effect grade” value in the series with Amaranthus retroflexus is 4 (Herbicidal ratio of 70% or higher and lower than 90%). Besides, in the series with rice plant, the “b: directly sowed rice plant, effect on crop (criteria 0-5)” value is 5 (Herbicidal ratio of 90% or more (almost completely withered)). Moreover, in the series on Monochoria vaginalis, the “Herbicidal effect grade, C” value was 3 (Herbicidal ratio of 40% or higher and lower than 70%). For the same compound, in the series on soybean [1], the “d: soybean, effect on crop (criteria 0-5)” value is 4 (Herbicidal ratio of 70% or higher and lower than 90%). Further, in the series on wheat, the “e: wheat, effect on crop (criteria 0-5)” value was 4 (Herbicidal ratio of 70% or higher and lower than 90%). Besides, the “I: Avena fatua, herbicidal effect (criteria 0-5)” value in the series on Avena fatua was 5 (Herbicidal ratio of 90% or more (almost completely withered)). The “Herbicidal effect grade, A: Echinochloa oryzacola Vasing.” value in [2] is reported as 5 (Herbicidal ratio of 90% or more (almost completely withered)). Also, the “herbicidal effect on H” value in series [3] was 5 (Herbicidal ratio of 90% or more (almost completely withered)). Also, the “Herbicidal effect grade, B” value is 4 (Herbicidal ratio of 70% or higher and lower than 90%) with Scirpus juncoides [4]; 5 (Herbicidal ratio of 90% or more (almost completely withered)) with Scirpus juncoides [6]. For the same compound, the “d: soybean, effect grade on crop” value with soybean [5] was 1 (Herbicidal ratio of 5% or higher and lower than 20%). The “g: rapeseed, effect grade on crop” value in the series on rapeseed is 4 (Herbicidal ratio of 70% or higher and lower than 90%).

With `CON=C(CC1CC(OC(=O)COc2ccccc2)=C(c2c(C)cc(C)cc2C)C1=O)C1CC1` (stereo not drawn) [1-063], the “N (Amaranthus retroflexus) herbicidal effect grade” value in the series on Amaranthus retroflexus (setting [7]) is 0 (Herbicidal ratio of 5% or lower (almost no effect)). Further, the “b: directly sowed rice plant, effect on crop grade” value in the series on rice plant is 5 (Herbicidal ratio of 90% or more (almost completely withered)). In addition, the “Herbicidal effect grade, C” value in the series with Monochoria vaginalis is 0 (Herbicidal ratio of 5% or lower (almost no effect)). The “d: soybean, effect on crop grade” value in the series on soybean [1] was 3 (Herbicidal ratio of 40% or higher and lower than 70%). Further, the “e: wheat, effect on crop grade” value with wheat is 4 (Herbicidal ratio of 70% or higher and lower than 90%). Besides, the “I: Avena fatua, herbicidal effect grade” value with Avena fatua was 5 (Herbicidal ratio of 90% or more (almost completely withered)). Besides, the “Herbicidal effect grade, A: Echinochloa oryzacola Vasing.” value in series [2] is on record as 5 (Herbicidal ratio of 90% or more (almost completely withered)). In addition, in series [3], the “herbicidal effect on H” value is given as 5 (Herbicidal ratio of 90% or more (almost completely withered)). In addition, the “Herbicidal effect grade, B” value in the series on Scirpus juncoides [4] is 2 (Herbicidal ratio of 20% or higher and lower than 40%); in the series with Scirpus juncoides [6] it was 3 (Herbicidal ratio of 40% or higher and lower than 70%). Also, the “d (soybean) effect on crop grade” value in the series on soybean [5] (setting [7]) is reported as 0 (Herbicidal ratio of 5% or lower (almost no effect)). In addition, the “g (rapeseed) effect on crop grade” value with rapeseed (setting [7]) is 0 (Herbicidal ratio of 5% or lower (almost no effect)).

Take `CON=C(CC1CC(O)=C(c2c(C)cc(Br)cc2C)C1=O)C1CC1` (stereo not drawn) [9-002]: in the series with Amaranthus retroflexus (setting [7]), the “Herbicidal effect grade, N: Amaranthus retroflexus” value was 0 (Herbicidal ratio of 5% or lower (almost no effect)). The “b: directly sowed rice plant, effect on crop grade” value with rice plant was 5 (Herbicidal ratio of 90% or more (almost completely withered)). In addition, the “Herbicidal effect grade, C” value in the series with Monochoria vaginalis is on record as 0 (Herbicidal ratio of 5% or lower (almost no effect)). In addition, the “d: soybean, effect on crop grade” value with soybean [1] is given as 0 (Herbicidal ratio of 5% or lower (almost no effect)). Further, in the series with wheat, the “e: wheat, effect on crop grade” value is 3 (Herbicidal ratio of 40% or higher and lower than 70%). The “I: Avena fatua, herbicidal effect grade” value in the series on Avena fatua is listed as 5 (Herbicidal ratio of 90% or more (almost completely withered)). The “Herbicidal effect grade, A: Echinochloa oryzacola Vasing.” value in series [2] was 5 (Herbicidal ratio of 90% or more (almost completely withered)). Besides, in series [3] (Table 24), the “H (Echinochloa crus-galli var. crus-galli) herbicidal effect grade” value is given as 5 (Herbicidal ratio of 90% or more (almost completely withered)). The “Herbicidal effect grade, B” value with Scirpus juncoides [4] is 0 (Herbicidal ratio of 5% or lower (almost no effect)); with Scirpus juncoides [6] it was 2 (Herbicidal ratio of 20% or higher and lower than 40%). Further, the “Effect on crop grade, d: soybean” value in the series with soybean [5] (setting [7]) is 0 (Herbicidal ratio of 5% or lower (almost no effect)). Besides, the “Effect on crop grade, g: rapeseed” value in the series with rapeseed (setting [7]) is 0 (Herbicidal ratio of 5% or lower (almost no effect)).

As for `CON=C(CC1CC(O)=C(c2c(C)cc(C)cc2C)C1=O)C1CC1` (stereo not drawn) [1-046], in the series with Amaranthus retroflexus (setting [7]), the “N (Amaranthus retroflexus) herbicidal effect grade” value was 2 (Herbicidal ratio of 20% or higher and lower than 40%). In addition, the “b: directly sowed rice plant, effect on crop grade” value in the series with rice plant is 5 (Herbicidal ratio of 90% or more (almost completely withered)). For the same compound, the “Herbicidal effect grade, C” value with Monochoria vaginalis was 3 (Herbicidal ratio of 40% or higher and lower than 70%). Besides, in the series on soybean [1], the “d: soybean, effect on crop grade” value is 3 (Herbicidal ratio of 40% or higher and lower than 70%). For the same compound, the “e: wheat, effect on crop grade” value in the series with wheat is 4 (Herbicidal ratio of 70% or higher and lower than 90%). The “I: Avena fatua, herbicidal effect grade” value in the series with Avena fatua was 5 (Herbicidal ratio of 90% or more (almost completely withered)). The “Herbicidal effect grade, A: Echinochloa oryzacola Vasing.” value in series [2] is 5 (Herbicidal ratio of 90% or more (almost completely withered)). Besides, the “herbicidal effect on H” value in series [3] is 5 (Herbicidal ratio of 90% or more (almost completely withered)). Moreover, the “Herbicidal effect grade, B” value in the series with Scirpus juncoides [4] and with Scirpus juncoides [6] was 5 (Herbicidal ratio of 90% or more (almost completely withered)) each time. The “d (soybean) effect on crop grade” value with soybean [5] (setting [7]) is recorded as 0 (Herbicidal ratio of 5% or lower (almost no effect)). Moreover, in the series with rapeseed (setting [7]), the “g (rapeseed) effect on crop grade” value is 4 (Herbicidal ratio of 70% or higher and lower than 90%).

The values above are taken from patent US11000033B2, “Ketone or oxime compound, and herbicide” (NISSAN CHEMICAL CORPORATION, priority 2014, dated 2021).
